In the oligonucleotide strings, read from the 5' end, every base follows the letter of its sugar. An asterisk marks phosphorothioate; unmarked linkages are phosphodiester. Other units and linkages are bracketed, terminal groups are in braces. A string of capitals states the bases alone. e = 2'-O-(2-methoxyethyl) (MOE); [5mC] = 5-methylcytosine; d = 2'-deoxy (DNA)
Assays:
human Factor XI mRNA = experiment: Dose-dependent inhibition and IC50 in HepG2 cells, microwalk gapmers, electroporation (Example 16); assay type: cell-based
Experimental: These gapmers were tested at various doses in HepG2 cells. Cells were plated at a density of 20,000 cells per well and transfected using electroporation with 375 nM, 750 nM, 1,500 nM, 3,000 nM, 6,000 nM and 12,000 nM concentrations of antisense oligonucleotide, as specified in Table 54. After a treatment period of approximately 16 hours, RNA was isolated from the cells and Factor XI mRNA levels were measured by quantitative real-time PCR. Human Factor XI primer probe set RTS 2966 was used to measure mRNA levels. Factor XI mRNA levels were adjusted according to total RNA content, as measured by RIBOGREEN. Results are presented as percent inhibition of Factor XI, relative to untreated control cells.
ISIS 416850, ISIS 416858, ISIS 445522, and ISIS 445531 (see Table 52 above) were re-tested in vitro along with the microwalk gapmers under the same conditions described above.
The chimeric antisense oligonucleotides in Table 53 were designed as 3-8-3 MOE, 4-8-4 MOE, 2-10-2 MOE, 3-10-3 MOE, or 4-10-4 MOE gapmers. The 3-8-3 gapmer is 14 nucleotides in length, wherein the central gap segment is comprised of eight 2′-deoxynucleotides and is flanked on both sides (in the 5′ and 3′ directions) by wings comprising three nucleotides each. The 4-8-4 gapmer is 16 nucleotides in length, wherein the central gap segment is comprised of eight 2′-deoxynucleotides and is flanked on both sides (in the 5′ and 3′ directions) by wings comprising four nucleotides each. The 2-10-2 gapmer is 14 nucleotides in length, wherein the central gap segment is comprised of ten 2′-deoxynucleotides and is flanked on both sides (in the 5′ and 3′ directions) by wings comprising two nucleotides each. The 3-10-3 gapmer is 16 nucleotides in length, wherein the central gap segment is comprised of ten 2′-deoxynucleotides and is flanked on both sides (in the 5′ and 3′ directions) by wings comprising three nucleotides each. The 4-10-4 gapmer is 18 nucleotides in length, wherein the central gap segment is comprised of ten 2′-deoxynucleotides and is flanked on both sides (in the 5′ and 3′ directions) by wings comprising four nucleotides each. For each of the motifs (3-8-3, 4-8-4, 2-10-2, 3-10-3, and 4-10-4), each nucleotide in the 5′ wing segment and each nucleotide in the 3′ wing segment has a 2′-MOE modification. The internucleoside linkages throughout each gapmer are phosphorothioate (P═S) linkages. All cytidine residues throughout each gapmer are 5-methylcytidines. “Human Target start site” indicates the 5′-most nucleotide to which the gapmer is targeted in the human sequence. “Human Target stop site” indicates the 3′-most nucleotide to which the gapmer is targeted in the human sequence. Each gapmer listed in Table 53 is targeted to SEQ ID NO: 1 (GENBANK Accession No. NM_000128.3). Each gapmer is Table 53 is also fully cross-reactive with the rhesus monkey Factor XI gene sequence, designated herein as SEQ ID NO: 274 (exons 1-15 GENBANK Accession No. NW—001118167.1). ‘Rhesus monkey start site’ indicates the 5′-most nucleotide to which the gapmer is targeted in the rhesus monkey sequence. ‘Rhesus monkey stop site’ indicates the 3′-most nucleotide to which the gapmer is targeted to the rhesus monkey sequence.
The first two listed gapmers in Table 54 are the original gapmers (ISIS 416850 and ISIS 416858) from which the remaining gapmers were designed via microwalk and are designated by an asterisk.

Factor XI mRNA = experiment: Cynomolgus monkeys, 25 mg/kg: liver Factor XI RNA analysis (Example 30); assay type: in vivo; settings: 25 mg/kg s.c.; day 55; liver
Experimental: (§1) Groups, each consisting of two male and two female monkeys, were injected subcutaneously with 25 mg/kg of ISIS 416850, ISIS 449709, ISIS 445522, ISIS 449710, ISIS 449707, ISIS 449711, ISIS 449708, 416858 and ISIS 445531. Antisense oligonucleotide was administered to the monkeys at 25 mg/kg three times per week for week 1 and 25 mg/kg twice per week for weeks 2 to 8. A control group, consisting of two male and two female monkeys was injected subcutaneously with PBS according to the same dosing regimen. Body weights were taken 14 days and 7 days before the start of treatment and were then measured weekly throughout the treatment period. Blood samples were collected 14 days and 5 days before the start of treatment and subsequently several times during the dosing regimen for measurement of various hematologic factors. On day 55, the monkeys were euthanized by exsanguination while under deep anesthesia, and organs harvested for further analysis.
On day 55, RNA was extracted from liver tissue for real-time PCR analysis of Factor XI using primer probe set LTS00301. Results are presented as percent inhibition of Factor XI, relative to PBS control.

Factor XI protein = experiment: Cynomolgus monkeys: plasma Factor XI protein ELISA (Example 30); assay type: in vivo; settings: 25 mg/kg s.c., plasma ELISA
Experimental: as §1
Plasma samples from all monkey groups taken on different days were analyzed by a sandwich-style ELISA assay (Affinity Biologicals Inc.) using an affinity-purified polyclonal anti-Factor XI antibody as the capture antibody and a peroxidase-conjugated polyclonal anti-Factor XI antibody as the detecting antibody. Monkey plasma was diluted 1:50 for the assay. Peroxidase activity was expressed by incubation with the substrate o-phenylenediamine. The color produced was quantified using a microplate reader at 490 nm and was considered to be proportional to the concentration of Factor XI in the samples.
The results are presented in Table 148, expressed as percentage reduction relative to that of the PBS control.

[1] = Tolerability in CD1 mice: body and organ weights (Example 21); assay type: in vivo; settings: 50 mg/kg s.c. twice per week for 6 weeks, percentage of the body weight
Experimental: Body weight was measured at the onset of the study and subsequently twice per week. The body weights of the mice are presented in Table 87 and are expressed increase in grams over the PBS control weight taken before the start of treatment. Liver, spleen, and kidney weights were measured at the end of the study, and are also presented in Table 87 as percentage of the body weight.

[2] = Tolerability in Sprague-Dawley rats: hematology assays (Example 23); assay type: in vivo; parameters: RBC / WBC / Neutrophil / Lymphocyte / Platelets: unit not given here; settings: blood
[3] = Tolerability in CD1 mice: body and organ weight (Example 25); assay type: in vivo; settings: 50 mg/kg s.c. twice per week for 6 weeks; for Kidney weight as percentage of body weight / Liver weight as percentage of body weight / Spleen weight as percentage of body weight: end of study

Substance | percent inhibition of Factor XI mRNA (human Factor XI mRNA; electroporation, 375 nM) [%] | percent inhibition of Factor XI mRNA (human Factor XI mRNA; electroporation, 750 nM) [%] | percent inhibition of Factor XI mRNA (human Factor XI mRNA; electroporation, 1,500 nM) [%] | percent inhibition of Factor XI mRNA (human Factor XI mRNA; electroporation, 3,000 nM) [%] | percent inhibition of Factor XI mRNA (human Factor XI mRNA; electroporation, 6,000 nM) [%] | percent inhibition of Factor XI mRNA (human Factor XI mRNA; electroporation, 12,000 nM) [%] | % inhibition of Factor XI mRNA in liver relative to the PBS control (Factor XI mRNA) [%] | Inhibition of Factor XI protein relative to the PBS control (Factor XI protein; Day 10) [%] | Inhibition of Factor XI protein relative to the PBS control (Factor XI protein; Day 17) [%] | Inhibition of Factor XI protein relative to the PBS control (Factor XI protein; Day 24) [%] | Inhibition of Factor XI protein relative to the PBS control (Factor XI protein; Day 31) [%] | Inhibition of Factor XI protein relative to the PBS control (Factor XI protein; Day 38) [%] | Inhibition of Factor XI protein relative to the PBS control (Factor XI protein; Day 45) [%] | Inhibition of Factor XI protein relative to the PBS control (Factor XI protein; Day 52) [%] | Inhibition of Factor XI protein relative to the PBS control (Factor XI protein; Day 55) [%] | Inhibition of Factor XI protein relative to the PBS control (Factor XI protein; Day −5) [%] | Inhibition of Factor XI protein relative to the PBS control (Factor XI protein; Day −14) [%] | further results
449707 (antisense e[5mC]*eA*e[5mC]*eA*dG*dT*dT*dT*d[5mC]*dT*dG*dG*e[5mC]*eA*eG*eG) [compound 449707] | 7 | 35 | 63 | 73 | 85 | 91 | 47 | 16 | 19 | 21 | 29 | 28 | 35 | 29 | 32 | 0 | 0 | –
449708 (antisense eA*e[5mC]*eA*dG*dT*dT*dT*d[5mC]*dT*dG*dG*e[5mC]*eA*eG) [compound 449708] | 0 | 0 | 22 | 33 | 61 | 85 | 46 | 7 | 15 | 3 | 14 | 9 | 2 | 6 | 6 | 0 | 1 | –
449709 (antisense eG*e[5mC]*eA*e[5mC]*dA*dG*dT*dT*dT*d[5mC]*dT*dG*dG*d[5mC]*eA*eG*eG*e[5mC]) [compound 449709] | 52 | 71 | 80 | 87 | 92 | 95 | 69 | 27 | 35 | 44 | 45 | 46 | 48 | 47 | 50 | 0 | 1 | –
449710 (antisense e[5mC]*eA*e[5mC]*dA*dG*dT*dT*dT*d[5mC]*dT*dG*dG*d[5mC]*eA*eG*eG) [compound 449710] | 2 | 21 | 52 | 70 | 82 | 87 | 52 | 10 | 14 | 17 | 25 | 20 | 23 | 4 | 24 | 0 | 1 | –
449711 (antisense eA*e[5mC]*dA*dG*dT*dT*dT*d[5mC]*dT*dG*dG*d[5mC]*eA*eG) [compound 449711] | 6 | 14 | 1 | 7 | 32 | 52 | 0 | 5 | 3 | 6 | 9 | 2 | 4 | 3 | 5 | 1 | 0 | –
ISIS 416856: gapmer of Table 8 (antisense eG*eG*e[5mC]*eA*eT*dT*dG*dG*dT*dG*d[5mC]*dA*d[5mC]*dA*dG*eT*eT*eT*e[5mC]*eT) | – | – | – | – | – | – | – | – | – | – | – | – | – | – | – | – | – | Kidney weight [1]: 1.4%; RBC [2]: 7.7; WBC [2]: 19
ISIS 445530: microwalk gapmer of Table 51 (antisense eG*e[5mC]*eA*eT*eT*dG*dG*dT*dG*d[5mC]*dA*d[5mC]*dA*eG*eT*eT*eT*e[5mC]) | – | – | – | – | – | – | – | – | – | – | – | – | – | – | – | – | – | Body weight (increase over PBS control weight before start of treatment) [3]: 11 g; Kidney weight as percentage of body weight [3]: 1.5%; Liver weight as percentage of body weight [3]: 6%; Spleen weight as percentage of body weight [3]: 0.5%
ISIS 445532: microwalk gapmer of Table 51 (antisense e[5mC]*eG*eG*e[5mC]*eA*dT*dT*dG*dG*dT*dG*d[5mC]*dA*e[5mC]*eA*eG*eT*eT) | – | – | – | – | – | – | – | – | – | – | – | – | – | – | – | – | – | Body weight (increase over PBS control weight before start of treatment) [3]: 10 g; Kidney weight as percentage of body weight [3]: 1.6%; Liver weight as percentage of body weight [3]: 6%; Spleen weight as percentage of body weight [3]: 0.4%

From patent US20120083522A1, “MODULATION OF INFLAMMATORY RESPONSES BY FACTOR XI” (Isis Pharmaceuitcals, inc., priority 2009, published 2012)
